The target of assay [1] is HLA-DR DRB3*01:01 (Homo sapiens, UniProt P01903+P79483). Briefly: biochemical. It counts as binding.
The target of assay [2] is HLA-DR DRB5*01:01 (Homo sapiens, UniProt P01903+Q30154). Description: biochemical. It counts as binding.
For assay [3], the target named is T1, HLA-DP DPA1*01:03/DPB1*02:01 (Homo sapiens, UniProt P04440+P20036, A65V/A84D/A85E/K98E).
T1 sequence (P20036 29-260): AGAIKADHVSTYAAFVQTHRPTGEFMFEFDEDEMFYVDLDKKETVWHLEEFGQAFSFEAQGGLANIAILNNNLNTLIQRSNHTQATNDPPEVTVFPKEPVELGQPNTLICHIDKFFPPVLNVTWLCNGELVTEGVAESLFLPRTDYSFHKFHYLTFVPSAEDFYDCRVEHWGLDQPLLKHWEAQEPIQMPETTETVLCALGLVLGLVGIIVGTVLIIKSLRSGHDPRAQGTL
T1 sequence (P04440 30-258 A65V/A84D/A85E/K98E): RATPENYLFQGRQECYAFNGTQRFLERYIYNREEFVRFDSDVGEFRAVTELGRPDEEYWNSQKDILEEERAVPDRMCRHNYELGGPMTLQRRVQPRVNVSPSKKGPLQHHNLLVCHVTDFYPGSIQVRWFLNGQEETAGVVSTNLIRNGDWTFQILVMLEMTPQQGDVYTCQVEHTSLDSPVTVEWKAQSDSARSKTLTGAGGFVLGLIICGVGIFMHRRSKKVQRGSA
Description: biochemical. It counts as binding.

The target of assay [4] is T2, HLA-DP DPA1*01:03/DPB1*03:01 (Homo sapiens, UniProt P04440+P20036, A65V/A84D/A85E/E86D/F38Y/G113D/G114E/G40L/I94L/L37V/M105V/M116V/P115A/R125K/T199I).
T2 sequence (P20036 29-260): T1 sequence (P20036 29-260)
T2 sequence (P04440 30-258 L37V/F38Y/G40L/A65V/A84D/A85E/E86D/I94L/M105V/G113D/G114E/P115A/M116V/R125K/T199I): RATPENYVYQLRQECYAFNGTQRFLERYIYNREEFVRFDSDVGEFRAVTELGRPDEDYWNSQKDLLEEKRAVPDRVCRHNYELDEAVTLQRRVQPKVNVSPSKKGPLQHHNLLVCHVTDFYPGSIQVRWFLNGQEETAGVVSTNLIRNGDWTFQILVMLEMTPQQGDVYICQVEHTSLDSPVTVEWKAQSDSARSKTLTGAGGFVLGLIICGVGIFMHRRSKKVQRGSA
Description: biochemical. It counts as binding. The following applies: read-out: Binding capacity/IC50 (nM) DPA1*01:03 DPB1*03:01.

In assay [5] the target is T3, HLA-DP DPA1*01:03/DPB1*04:01 (Homo sapiens, UniProt P04440+P20036).
T3 sequence (P20036 29-260): T1 sequence (P20036 29-260)
T3 sequence (P04440 30-258): T1 sequence (P04440 30-258 A65V/A84D/A85E/K98E) with V36A, D55A, E56A, E69K
Description: biochemical. It counts as binding.

Assay [6] deals with T4, HLA-DP DPA1*02:01/DPB1*05:01 (Homo sapiens, UniProt P04440+P20036, A65V/A84E/F191V/F64L/G113D/G114E/K142R/L158P/M116V/M62Q/P115A/Q81R/R125K/T114A/T199I/T259P/V234M).
T4 sequence (P20036 29-260 A42M/M62Q/Q81R/T114A/K142R/L158P/F191V/T259P): T1 sequence (P20036 29-260) with A14M, M34Q, Q53R, T86A, K114R, L130P, F163V, T231P
T4 sequence (P04440 30-258 F64L/A65V/A84E/G113D/G114E/P115A/M116V/R125K/T199I/V234M): T2 sequence (P04440 30-258 L37V/F38Y/G40L/A65V/A84D/A85E/E86D/I94L/M105V/G113D/G114E/P115A/M116V/R125K/T199I) with V8L, Y9F, L11G, F35L, D55E, E56A, D57E, L65I, V76M, V205M
Briefly: biochemical. It counts as binding. The conditions noted are these: read-out: Binding capacity/IC50 (nM) DPA1*02:01 DPB1*05:01.

In assay [7] the target is T5, HLA-DP DPA1*02:01/DPB1*14:01 (Homo sapiens, UniProt P04440+P20036, A65V/A84D/A85E/E86D/F191V/F38H/G113D/G114E/G40L/I94L/K142R/L158P/L37V/M105V/M116V/M62Q/P115A/Q81R/R125K/T114A/T199I/T259P).
T5 sequence (P20036 29-260 A42M/M62Q/Q81R/T114A/K142R/L158P/F191V/T259P): T1 sequence (P20036 29-260) with A14M, M34Q, Q53R, T86A, K114R, L130P, F163V, T231P
T5 sequence (P04440 30-258 L37V/F38H/G40L/A65V/A84D/A85E/E86D/I94L/M105V/G113D/G114E/P115A/M116V/R125K/T199I/R223Q): T2 sequence (P04440 30-258 L37V/F38Y/G40L/A65V/A84D/A85E/E86D/I94L/M105V/G113D/G114E/P115A/M116V/R125K/T199I) with Y9H, R194Q
Briefly: biochemical. It counts as binding. The following applies: read-out: Binding capacity/IC50 (nM) DPA1*02:01 DPB1*14:01.

For assay [8], the target named is T6, HLA-DP DPA1*01:03/DPB1*20:01 (Homo sapiens, UniProt P04440+P20036, A65V/A84D/A85E/E86D/F38Y/G113D/G114E/G40L/I94L/L37V/M116V/P115A/R125K/T199I).
T6 sequence (P20036 29-260): T1 sequence (P20036 29-260)
T6 sequence (P04440 30-258 L37V/F38Y/G40L/A65V/A84D/A85E/E86D/I94L/G113D/G114E/P115A/M116V/R125K/T199I/V234M): T2 sequence (P04440 30-258 L37V/F38Y/G40L/A65V/A84D/A85E/E86D/I94L/M105V/G113D/G114E/P115A/M116V/R125K/T199I) with V76M, V205M
Description: biochemical. It counts as binding. The conditions noted are these: read-out: Binding capacity/IC50 (nM) DPA1*01:03 DPB1*20:01.

In assay [9] the target is HLA-DP DPA1*02:01/DPB1*01:01 (Homo sapiens, UniProt P04440+P20036, F191V/F38Y/F64Y/G113D/G114E/K142R/L158P/L37V/M105V/M116V/M62Q/P115A/Q81R/R125K/R223Q/T114A/T199I/T259P). Description: biochemical.
In assay [10] the target is HLA-DP DPA1*03:01/DPB1*04:02 (Homo sapiens, UniProt P04440+P20036, A42M/A65V/A84D/A85E/L207M/L97S). Briefly: biochemical.
Assay [11] concerns splenocytes from HIVBr27 immunized mice. Description: murine IFN-γ ELISPOT assay. It counts as in vivo. The following applies: splenocytes of HIVBr27-immunized BALB/c mice, 5 µM peptide. On the procedure:
Six to eight week-old female BALB/c mice were used in this study. Six mice per group were injected intramuscularly, at weeks 0, 2 and 4, with HIVBr27 plasmid or empty pVAX1. Each quadriceps was injected with 50 µL of DNA at a concentration of 1 µg/µL in saline such that each animal received a total of 100 µg of plasmid DNA per immunization. Two weeks after the last DNA immunization, mice were euthanized with CO2.
Two weeks after the last immunization, mice were euthanized and spleens were removed aseptically. After obtaining single cell suspensions, cells were washed in 10 mL of RPMI 1640. Cells were then resuspended in R-10 (RPMI supplemented with 10% of fetal bovine serum (GIBCO), 2 mM L-glutamine (Life Technologies), 1 mM sodium pyruvate (Life Technologies), 1% vol/vol non-essential amino acids solution (Life Technologies), 1% vol/vol vitamin solution (Life Technologies), […] of Gentamicin, […] of Peflacin and 5×10^−5 M 2β-mercaptoetanol (Life Technologies). The viability of cells was evaluated using 0.2% Trypan Blue exclusion dye to discriminate between live and dead cells. Cell concentration was estimated with the aid of a Neubauer chamber and adjusted in cell culture medium. […]

Substitutions are numbered along the chain they refer to.

Sequence of HLA-DP DPA1*02:01/DPB1*01:01 (P20036 29-260 A42M/M62Q/Q81R/T114A/K142R/L158P/F191V/T259P, other chains not shown): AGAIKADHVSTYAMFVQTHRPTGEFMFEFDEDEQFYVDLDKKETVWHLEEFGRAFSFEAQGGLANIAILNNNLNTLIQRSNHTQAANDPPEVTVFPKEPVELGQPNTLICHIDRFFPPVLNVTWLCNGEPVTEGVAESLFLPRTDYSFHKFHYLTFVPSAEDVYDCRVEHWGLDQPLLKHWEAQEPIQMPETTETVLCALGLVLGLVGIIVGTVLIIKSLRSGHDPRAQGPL

Turning to `CSCC[C@H](NC(=O)[C@@H]1CCCN1C(=O)[C@H](CCCNC(=N)N)NC(=O)[C@H](CC(C)C)NC(=O)[C@@H]1CCCN1C(=O)[C@@H](NC(=O)[C@H](CCC(N)=O)NC(=O)[C@@H]1CCCN1C(=O)[C@H](CCCNC(=N)N)NC(=O)[C@@H](NC(=O)[C@@H]1CCCN1C(=O)[C@H](Cc1ccccc1)NC(=O)CN)C(C)C)C(C)C)C(=O)N[C@H](C(=O)N[C@@H](Cc1ccc(O)cc1)C(=O)N[C@@H](CCCCN)C(=O)NCC(=O)N[C@@H](C)C(=O)N[C@@H](Cc1ccccc1)C(=O)N[C@@H](CC(=O)O)C(=O)N[C@@H](CC(C)C)C(N)=O)[C@@H](C)O` [nef(67-87)], the figures for the IC50 in assay [1] and in assay [2] were 6290 nM and 191 nM, respectively.
On to `CC[C@H](C)[C@H](NC(=O)[C@H](CCSC)NC(=O)[C@@H](NC(=O)[C@H](CCC(N)=O)NC(=O)[C@H](Cc1c[nH]c2ccccc12)NC(=O)[C@H](CCCNC(=N)N)NC(=O)[C@H](CC(N)=O)NC(=O)[C@H](CCC(=O)O)NC(=O)[C@@H](N)CCSC)C(C)C)C(=O)N[C@H](C(=O)N[C@@H](Cc1c[nH]c2ccccc12)C(=O)N[C@@H](CCC(N)=O)C(=O)N[C@H](C(=O)N[C@@H](CC(=O)O)C(=O)N[C@@H](CCCNC(=N)N)C(N)=O)C(C)C)C(C)C` [vif(1-15)], for which the IC50 in [3] was found to be 1550 nM; in assay [4], 5840 nM; in [5], 13 nM; in assay [6], 8170 nM; in assay [7], 7240 nM; in [8], 364 nM. Also, the figures for the IC50 in [9] and in assay [10] were 1030 nM and 3750 nM, respectively.
Take EWEYVNTPPLVKLWY [RT(413-427) D subtype]: the “IFN-γ secretion against variant compared to M-group consensus peptide” value in assay [11] is given as “reduced”.
EWEFVSTPPLVKLWY [RT(413-427) B subtype]: the “IFN-γ secretion against variant compared to M-group consensus peptide” value in assay [11] is recorded as “reduced”.

The values are drawn from publication PMC3445454, “Broad and Cross-Clade CD4^+ T-Cell Responses Elicited by a DNA Vaccine Encoding Highly Conserved and Promiscuous HIV-1 M-Group Consensus Peptides” (PLoS ONE, 2012).
